Here are results for 1 compound from article PMC12386934, “Characteristics and Potential of KSL, KSL-W, and Dadapin-1 Antimicrobial Peptides for Preventing Infections of Orthopedic Prosthetic Devices: Identifying the Most Robust Candidate” (International Journal of Molecular Sciences, 2025).

Where a SMILES comes first, the peptide text is derived from it.

This series relates to MG63 cells co-cultured with S. aureus ATCC 25923. The experiment in a line: Suppression of S. aureus cytotoxicity in co-culture, LDH assay. Type of series: cell-based, human. To be noted: MG63 co-cultured with S. aureus ATCC 25923, 24 h, lowest concentration tested. How it is done: KSL-W was the peptide selected to investigate the efficacy in suppressing the cytotoxicity of S. aureus ATCC 25923 on osteoblast-like MG63 cells. S. aureus ATCC 25923 was thawed from the frozen stock and plated on MHA and incubated at 37 °C for 24 h.
A suspension of MG63 cells was prepared in complete DMEM at a concentration of 5 × 10^4 cells/mL. A total of 100 µL of cell suspension was added to each well of a 96-well cell culture-treated plate (137101, Nunclon Delta Black Microwell, ThermoScientific, Thermo Fisher Scientific, Segrate, Italy). After cell seeding, the plate was incubated for a day at 37 °C under standard culture conditions. […]
Cytotoxicity was assessed by measuring the release of lactate dehydrogenase (LDH) from damaged cells by the LDH Cytotoxicity Assay (ab197004, Abcam, Cambridge, UK), strictly following the instructions of the manufacturer. […] After 10 min shaking, the plate was read in fluorescence (excitation: 535 nm; emission 587 nm) by an Infinite 200 PRO mod. M PLEX multifunction plate reader (Tecan Group Ltd., Männedorf, Switzerland). […]
Data in relative fluorescence units (RFU) from the investigation on KSL-W suppression of S. aureus cytotoxicity were processed as follows. The mean of the duplicate readings from each single treated well was calculated. […]

As for `CC(C)[C@H](NC(=O)[C@H](Cc1c[nH]c2ccccc12)NC(=O)[C@H](Cc1ccccc1)NC(=O)[C@@H](NC(=O)[C@@H](NC(=O)[C@H](CCCCN)NC(=O)[C@@H](N)CCCCN)C(C)C)C(C)C)C(=O)N[C@@H](CCCCN)C(=O)N[C@@H](Cc1ccccc1)C(=O)N[C@@H](CCCCN)C(=O)O` [KSL-W] (H-KKVVFWVKFK-OH), the “concentration completely suppressing cytotoxicity due to S. aureus” value came out at 75 µg/mL.
